Assay results reported in PubChem BioAssay AID248 (DTP/NCI, 2004).
“And” between values parts separate entries of the source, which are not always exact repeats. Equal values may be shown once. Inconclusive results and toxic doses are left out. No stated cut-off is given here; in the data, active means T/C of 150% or more; inactive means T/C below 125%.

System: L1210 leukemia ip in BDF1 mice, survival T/C
Assay: NCI In Vivo Anticancer Drug Screen. Data for tumor model L1210 Leukemia (intraperitoneal) in B6D2F1 (BDF1) mice
Conditions: endpoint: mean survival time, higher = longer survival
Outline: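 Ratio derived from survival: compound-dosed mice over vehicle-dosed mice, all bearing a transplantable tumor.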

[1] = dose: 6.25 mg/kg/injection, schedule: Q01DX009 (ip), vehicle: saline with Tween-80
[2] = dose: 12.5 mg/kg/injection, schedule: Q01DX009 (ip), vehicle: saline with Tween-80
[3] = dose: 25.0 mg/kg/injection, schedule: Q01DX009 (ip), vehicle: saline with Tween-80
[4] = dose: 100.0 mg/kg/injection, schedule: Q04DX002 (ip), vehicle: saline
[5] = dose: 100.0 mg/kg/injection, schedule: Q04DX003 (ip), vehicle: Klucel (hydroxypropylcellulose) (HPC)
[6] = dose: 200.0 mg/kg/injection, schedule: Q04DX003 (ip), vehicle: Klucel (hydroxypropylcellulose) (HPC)
[7] = dose: 400.0 mg/kg/injection, schedule: Q04DX003 (ip), vehicle: Klucel (hydroxypropylcellulose) (HPC)
[8] = dose: 100.0 mg/kg/injection, schedule: Q01DX009 (ip), vehicle: saline
[9] = dose: 200.0 mg/kg/injection, schedule: Q01DX009 (ip), vehicle: saline
[10] = dose: 400.0 mg/kg/injection, schedule: Q01DX009 (ip), vehicle: saline
[11] = dose: 100.0 mg/kg/injection, schedule: Q01DX009 (ip), vehicle: saline with Tween-80
[12] = dose: 100.0 mg/kg/injection, schedule: Q04DX003 (ip), vehicle: saline
[13] = dose: 200.0 mg/kg/injection, schedule: Q01DX009 (ip), vehicle: saline with Tween-80
[14] = dose: 200.0 mg/kg/injection, schedule: Q04DX003 (ip), vehicle: saline
[15] = dose: 400.0 mg/kg/injection, schedule: Q01DX009 (ip), vehicle: saline with Tween-80
[16] = dose: 400.0 mg/kg/injection, schedule: Q04DX003 (ip), vehicle: saline
[17] = dose: 100.0 mg/kg/injection, schedule: Q01DX001 (ip), vehicle: saline with Tween-80
[18] = dose: 200.0 mg/kg/injection, schedule: Q01DX001 (ip), vehicle: saline with Tween-80
[19] = dose: 400.0 mg/kg/injection, schedule: Q01DX001 (ip), vehicle: saline with Tween-80
[20] = dose: 100.0 mg/kg/injection, schedule: Q01DX001 (ip), vehicle: carboxymethylcellulose (CMC)
[21] = dose: 200.0 mg/kg/injection, schedule: Q01DX001 (ip), vehicle: carboxymethylcellulose (CMC)
[22] = dose: 100.0 mg/kg/injection, schedule: Q01DX009 (ip), vehicle: Klucel (hydroxypropylcellulose) (HPC)
[23] = dose: 200.0 mg/kg/injection, schedule: Q01DX009 (ip), vehicle: Klucel (hydroxypropylcellulose) (HPC)

Measured: T/C

O=C1OC(c2ccccc2)=N/C1=C\c1ccc([N+](=O)[O-])cc1
inactive: dose: 100.0 mg/kg/injection, schedule: Q04DX002 (ip), vehicle: Klucel (hydroxypropylcellulose) (HPC) 92 % of control | dose: 200.0 mg/kg/injection, schedule: Q04DX002 (ip), vehicle: Klucel (hydroxypropylcellulose) (HPC) 89 % of control | dose: 400.0 mg/kg/injection, schedule: Q04DX002 (ip), vehicle: Klucel (hydroxypropylcellulose) (HPC) 86 % of control

CCC(C)N=[N+]([O-])CC (stereo unspecified)
inactive: dose: 100.0 mg/kg/injection, schedule: Q01DX001 (ip), vehicle: acetone 101 % of control | dose: 200.0 mg/kg/injection, schedule: Q01DX001 (ip), vehicle: acetone 112 % of control | dose: 400.0 mg/kg/injection, schedule: Q01DX001 (ip), vehicle: acetone 91 % of control

COc1c(NC(=O)Nc2ccccc2C)cccc1[N+](=O)[O-]
inactive: [1] 100 % of control | dose: 6.25 mg/kg/injection, schedule: Q04DX002 (ip), vehicle: saline with Tween-80 96 % of control | [2] 92 % of control | dose: 12.5 mg/kg/injection, schedule: Q04DX002 (ip), vehicle: saline with Tween-80 93 % of control | [3] 88 % of control | dose: 25.0 mg/kg/injection, schedule: Q04DX002 (ip), vehicle: saline with Tween-80 100 % of control

Cc1nc2ccccc2c(=O)n1-c1ccc(N(CCCl)CCCl)cc1
inactive: [4] 98 % of control | dose: 200.0 mg/kg/injection, schedule: Q04DX002 (ip), vehicle: saline 117 % of control | dose: 400.0 mg/kg/injection, schedule: Q04DX002 (ip), vehicle: saline 103 % of control

N=C1SCc2c1sc1ccccc21
inactive: [5] 117 % of control | [6] 104 % of control | [7] 103 % of control

CC(=O)Oc1cc(Cl)c(Cl)cc1Cl
inactive: [8] 100 % of control | dose: 100.0 mg/kg/injection, schedule: Q04DX002 (ip), vehicle: gum acacia 102 % of control | [9] 100 % of control | dose: 200.0 mg/kg/injection, schedule: Q04DX002 (ip), vehicle: gum acacia 110 % of control | [10] 102 % of control | dose: 400.0 mg/kg/injection, schedule: Q04DX002 (ip), vehicle: gum acacia 94 % of control

Brc1cccc[n+]1Cc1ccc(C[n+]2ccccc2Br)cc1
inactive: dose: 2.66 mg/kg/injection, schedule: Q01DX Z (ip), vehicle: saline 98 % of control

NC(Cc1ccc([N+](=O)[O-])cc1)C(=O)O (stereo unspecified)
inactive: dose: 100.0 mg/kg/injection, schedule: Q01DX001 (ip), vehicle: saline sonified 116 % of control | [11] 100 % of control and 98 % of control | [12] 111 % of control | dose: 200.0 mg/kg/injection, schedule: Q01DX001 (ip), vehicle: saline sonified 103 % of control | [13] 95 % of control | [14] 101 % of control | dose: 400.0 mg/kg/injection, schedule: Q01DX001 (ip), vehicle: saline sonified 103 % of control | [15] 100 % of control and 92 % of control | [16] 90 % of control

O=C(O)c1ccc[nH]c1=O
inactive: [17] 97 % of control | [18] 95 % of control | [19] 98 % of control

CNC(=O)NC1CCCCC1
inactive: [20] 106 % of control | dose: 100.0 mg/kg/injection, schedule: Q01DX009 (ip), vehicle: carboxymethylcellulose (CMC) 92 % of control and 98 % of control | dose: 100.0 mg/kg/injection, schedule: Q04DX002 (ip), vehicle: carboxymethylcellulose (CMC) 97 % of control | dose: 100.0 mg/kg/injection, schedule: Q04DX003 (ip), vehicle: carboxymethylcellulose (CMC) 100 % of control | [21] 103 % of control | dose: 200.0 mg/kg/injection, schedule: Q01DX009 (ip), vehicle: carboxymethylcellulose (CMC) 95 % of control and 96 % of control | dose: 200.0 mg/kg/injection, schedule: Q04DX002 (ip), vehicle: carboxymethylcellulose (CMC) 89 % of control | dose: 200.0 mg/kg/injection, schedule: Q04DX003 (ip), vehicle: carboxymethylcellulose (CMC) 97 % of control | dose: 400.0 mg/kg/injection, schedule: Q01DX001 (ip), vehicle: carboxymethylcellulose (CMC) 106 % of control | dose: 400.0 mg/kg/injection, schedule: Q01DX009 (ip), vehicle: carboxymethylcellulose (CMC) 101 % of control | dose: 400.0 mg/kg/injection, schedule: Q04DX002 (ip), vehicle: carboxymethylcellulose (CMC) 100 % of control | dose: 400.0 mg/kg/injection, schedule: Q04DX003 (ip), vehicle: carboxymethylcellulose (CMC) 100 % of control

CCCCCCCCC1SC1CCCCCCCC(=O)OCCOCCOCC (stereo unspecified)
inactive: [11] 95 % of control | [13] 92 % of control | [15] 95 % of control

O=C(O)c1c(-c2ccccc2)[nH]c2cc(Cl)ccc2c1=O
inactive: dose: 50.0 mg/kg/injection, schedule: Q01DX001 (ip), vehicle: carboxymethylcellulose (CMC) 113 % of control | [20] 113 % of control | [22] 112 % of control | [5] 104 % of control | [21] 107 % of control | [23] 106 % of control | [6] 107 % of control | [7] 104 % of control

Cc1ccccc1-n1c(C)cc(C(=O)O)c1C
inactive: [22] 110 % of control | [5] 102 % of control | [23] 93 % of control | [6] 106 % of control | dose: 400.0 mg/kg/injection, schedule: Q01DX009 (ip), vehicle: Klucel (hydroxypropylcellulose) (HPC) 98 % of control | [7] 88 % of control

CCCCNCCC(=O)c1ccc(Cl)cc1
inactive: [1] 98 % of control | [2] 100 % of control | [3] 94 % of control

O=c1[nH]nc(-c2ccccn2)o1
inactive: dose: 50.0 mg/kg/injection, schedule: Q01DX009 (ip), vehicle: saline with Tween-80 97 % of control | [11] 90 % of control | [13] 97 % of control

CCCCCCCN(CCCCCCC)CC(O)c1cc(-c2ccc(Cl)cc2)nc2c(C(F)(F)F)cccc12 (stereo unspecified)
inactive: dose: 100.0 mg/kg/injection, schedule: Q01DX001 (ip), vehicle: Klucel (hydroxypropylcellulose) (HPC) 104 % of control | [11] 102 % of control | dose: 200.0 mg/kg/injection, schedule: Q01DX001 (ip), vehicle: Klucel (hydroxypropylcellulose) (HPC) 96 % of control | [13] 100 % of control | dose: 400.0 mg/kg/injection, schedule: Q01DX001 (ip), vehicle: Klucel (hydroxypropylcellulose) (HPC) 100 % of control | [15] 100 % of control

COc1ccc(CCN)cc1
inactive: dose: 25.0 mg/kg/injection, schedule: Q04DX002 (ip), vehicle: saline 101 % of control | dose: 50.0 mg/kg/injection, schedule: Q04DX002 (ip), vehicle: saline 97 % of control | [4] 97 % of control and 109 % of control

Nc1cccc(CCc2nc(N)nc(N)c2-c2ccc(Cl)c(Cl)c2)c1
inactive: [17] 95 % of control | [18] 109 % of control | [19] 109 % of control

CCOC(=O)Cc1ccccc1
inactive: [11] 97 % of control | dose: 175.0 mg/kg/injection, schedule: Q04DX003 (ip), vehicle: saline with Tween-80 91 % of control | [13] 104 % of control | dose: 265.0 mg/kg/injection, schedule: Q04DX003 (ip), vehicle: saline with Tween-80 106 % of control | [15] 99 % of control

C/C=C(\C)C(=O)Nc1cccc(OC(=O)NC)c1
inactive: [11] 91 % of control | [13] 88 % of control | [15] 91 % of control

CN(C)C(=O)NNC(=O)N(C)C
inactive: [8] 103 % of control | [12] 94 % of control | [9] 95 % of control | [14] 96 % of control | [10] 95 % of control | [16] 100 % of control

N#CC(Nc1ccccc1C(N)=O)c1ccccc1 (stereo unspecified)
inactive: [8] 95 % of control | [9] 106 % of control | [10] 91 % of control
